Broadly, the pIC50 is −log10 of the IC50, conventionally taken in molar units. High values mean a low IC50, low ones a high IC50.

pIC50: −log10 of the molar value.

The target of this test is GAR transformylase (Sus scrofa). The test can be described thus: In vitro inhibition of hog liver GAR transformylase with (6R)-10-formyl-FH4 as cofactor.
Take `Cc1cc(C(=O)NC(CCC(=O)O)C(=O)O)ccc1NCCCc1c(N)nc(N)[nH]c1=O` (centres undefined): the pIC50 was 5.21.

The molecule `Nc1nc(N)c(CCCCNc2ccc(C(=O)NC(CCC(=O)O)C(=O)O)cc2)c(=O)[nH]1` (centres undefined) gave a pIC50 of 4.74.

`Nc1nnc(C2CCN(c3ccc(C(=O)NC(CCC(=O)O)C(=O)O)cc3)C2=O)c(=O)[nH]1` (centres undefined) gave a pIC50 of under 4.00.

`Nc1nc(N)c(CCCSc2ccc(C(=O)NC(CCC(=O)O)C(=O)O)cc2)c(=O)[nH]1` (centres undefined) showed a pIC50 of 5.59.

Take `Nc1nc(N)c(CCCOc2ccc(C(=O)NC(CCC(=O)O)C(=O)O)cc2)c(=O)[nH]1` (centres undefined): the pIC50 is 5.28.

`Nc1nc(N)c(CCCNc2ccc(C(=O)NC(CCC(=O)O)C(=O)O)c(Cl)c2)c(=O)[nH]1` (centres undefined) gave a negative logarithm of the IC50 (pIC50) of 5.18. The pIC50 values of the last two molecules are within 0.2 log units of each other.

Turning to `Nc1nc(N)c(CCCNc2ccc(C(=O)NC(CCC(=O)O)C(=O)O)cc2F)c(=O)[nH]1` (centres undefined), the pIC50 was 5.46.

As to `Nc1nc(N)c(CCCNc2ccc(C(=O)NC(CCC(=O)O)C(=O)O)c(F)c2)c(=O)[nH]1` (centres undefined), the pIC50 is 5.51.

Molecule `Nc1nc[nH]c(=O)c1CCCNc1ccc(C(=O)NC(CCC(=O)O)C(=O)O)cc1` (centres undefined) showed a pIC50 of 4.28.

The values are drawn from BindingDB's records for doi:10.1021/jm00086a008 (Wellcome Research Laboratories, 1992).
